The values below are quoted from earlier work in US5089515A, “Lipid-peroxide formation inhibiting composition and novel compounds useful therefor” (priority 1986, dated 1992).

Molecules are shown by their SMILES.

The conditions of data set [1]: cited from earlier work.
Data set [2] relates to lipid peroxidation due to active oxygen species. Conditions: prior art; cited from earlier work.
The subject of another data set is central nervous system. Conditions: IYAKUHIN KENKYU, 16, 1 (1985); cited from earlier work.

Take `COC1=C(OC)C(=O)C(CCCCCCCCCCO)=C(C)C1=O` [Idebenon]: the solubility in water entry in data set [1] was “difficult to dissolve in water”. Besides, the “inhibition of lipid peroxidation” value in data set [2] is recorded as “known to inhibit lipid peroxidation due to active oxygen species”.
For `CCN(CC)Cc1nccn1-c1ccc([N+](=O)[O-])cc1C(=O)c1ccccc1Cl` [nizofenone], in the data set on central nervous system, the “depressing the central nervous system” value is recorded as “defective in depressing the central nervous system”. Besides, the “inhibition of lipid peroxidation” value in data set [2] was “known to inhibit lipid peroxidation due to active oxygen species”.
